Laboratory results reported in article PMC5356016, “Suppression of Sin3A activity promotes differentiation of pluripotent cells into functional neurons” (Scientific Reports, 2017).
“Also recorded” adds a separate entry of the source.

Columns and labels:
[1] = system: voltage-gated sodium channels; format: cell-based, mouse
[2] = system: voltage-gated sodium channels; format: cell-based, mouse; remark: listed apart in the source
[3] = system: P19 cells; test: Neuronal differentiation of P19 cells (immunocytochemistry, western blot, RT-PCR); format: cell-based, mouse; conditions: 30 μM TAT, 10 days, Tuj1 antibody
[4] = system: Sin3A PAH1-REST interaction; test: Competitive ELISA, inhibition of PAH1-REST binding; set-up: species or system mouse; conditions: peptide 0-100 μM pre-incubated 2 h, room temperature, GST-REST 2 μg/mL, mean ± s.d., n = 3
[5] = system: mouse Sin3A PAH1 (residues 114–195); test: Fluorescence polarization binding to Sin3A PAH1; conditions: 1 μM FITC-labeled peptide, PAH1 or PAH2 0-10 μM, 20 mM Tris-HCl, 150 mM NaCl, pH 7.5, 30 min, room temperature; ex 495/em 520 nm; mean ± s.d., n = 3
[6] = system: Sin3A PAH2-REST interaction; test: Competitive ELISA, inhibition of PAH2-REST binding; set-up: species or system mouse; conditions: peptide 0-100 μM pre-incubated 2 h, room temperature, GST-REST 2 μg/mL, mean ± s.d., n = 3
[7] = system: Sin3A-REST interaction; test: Co-immunoprecipitation of Sin3A and REST from P19 cell lysates; format: biochemical, mouse; conditions: peptide 0, 30, 60 μM, 2 h at 4 °C, anti-REST or anti-Sin3A immunoprecipitation, western blot, at least three experiments
Procedure: We next examined whether the Mad1 and SAP25 peptides block the Sin3A-REST interaction. First, the ability of these peptides to inhibit the associations of PAH1 and PAH2 with REST was determined using ELISA. […] However, the Mad1 and SAP25 peptides had little effect on the respective PAH1-REST and PAH2-REST interactions. The cellular inhibitory activities of these peptides were then determined using an immunoprecipitation analysis. After incubating P19 cell lysates with several concentrations of SAP25 and MAD1 peptides, REST in the cell lysates was immunoprecipitated using the anti-REST antibody. The precipitates were probed using the anti-Sin3A antibody. […]
Figure 5 Inhibitory effect of the SAP25 and Mad1 peptides on binding of Sin3A PAH1 or PAH2 to REST. […] Binding of GST-REST to PAH1 and PAH2 was measured using the anti-GST antibody and HRP conjugated secondary antibody (mean ± s.d., n = 3). […] Immunoprecipitation was performed with antibodies against (c) REST and (d) Sin3A, and the amount of co-precipitated proteins was then determined using western blot analysis. ‘Un’ indicates no treatment with a peptide. […]
Fluorescence polarization assay […]
After washing with TBST, GST-REST (2 µg/mL) was added to the wells and then incubated for 2 h. The bound GST-REST to PAH1 or PAH2 was detected by using anti-GST antibody […]

[8] = molecular target: Sin3A PAH1; conditions: SAP25 protein sequence 171–186, ref [35]; cited from earlier work
Source text: (§1) If this proposal is correct, a synthetic inhibitor of Sin3A-REST interactions should promote neurogenesis of these cells. Previous studies have shown that the N-terminal PAH1 and PAH2 domains of Sin3A bind to the N-terminal region of REST[6].

[9] = system: mouse Sin3A PAH2 (residues 295–385); test: Fluorescence polarization binding to Sin3A PAH2; conditions: 1 μM FITC-labeled peptide, PAH1 or PAH2 0-10 μM, 20 mM Tris-HCl, 150 mM NaCl, pH 7.5, 30 min, room temperature; ex 495/em 520 nm; mean ± s.d., n = 3
[10] = molecular target: Sin3A PAH2; conditions: Mad1 protein sequence 6–21, ref [34]; cited from earlier work
Source text: as §1

In the case of `NC1=N[C@H](O)[C@H]2[C@H]3O[C@]4(O)O[C@@H]([C@@H](O)[C@@]2(N1)[C@@H]4O)[C@]3(O)CO` [TTX, tetrodotoxin], the “effect of TTX on action potentials elicited by current injections (in words)” value [1] is reported as “almost completely blocked” and the “effect of TTX on current injection-promoted action potentials (in words)” value [2] is reported as “almost completely abrogated”.

For YGRKKRRQRRR [TAT], the “neuronal differentiation (in words), TAT control” value [3] was “did not affect neuronal differentiation”.

In the case of AEMIALAGLLQMSQGEX [SAP25 peptide], the “inhibition of PAH1-REST binding (in words)” value [4] is reported as “the level of inhibition of binding of PAH2 to REST by Mad1 was greater than that of SAP25 toward PAH1-REST interactions”, the “binding to Sin3A PAH1 (in words)” value [5] is reported as “bind PAH1 much more tightly than PAH2” and the “inhibition of PAH2-REST binding (in words)” value [6] is reported as “little effect”. For the same compound, the “inhibition of Sin3A-REST interaction (in words)” value [7] was “Mad1 peptide exhibited a much greater ability to block interactions of Sin3A with REST than the SAP25 peptide” and the Kd [8] was 134 nM.

For RMNIQMLLEAADYLERX [Mad1 peptide], the “binding to Sin3A PAH2 (in words)” value [9] was “interact with PAH2 much more strongly than PAH1”, the “inhibition of PAH1-REST binding (in words)” value [4] was “little effect” and the “inhibition of PAH2-REST binding (in words)” value [6] was “the level of inhibition of binding of PAH2 to REST by Mad1 was greater than that of SAP25 toward PAH1-REST interactions”. For the same compound, the “inhibition of Sin3A-REST interaction (in words)” value [7] was “much greater ability to block interactions of Sin3A with REST than the SAP25 peptide; also recorded: has inhibitory activity against REST-Sin3A interactions in cells” and the Kd [10] was 29 nM.
